Data from patent US11028090B2 (Dong Wha Pharm. Co., Ltd., priority 2017, dated 2021).
Where “and” joins values, the source holds several entries; their conditions need not be identical. Equal entries are not always repeated. Structures can show the parent of a compound that is named as a salt. Where two headings read alike, the source gives them in different places.

How the values were obtained:
[1] = test system: acute myelogenous leukemia cells (MV-4-11 cells); experiment: Cytotoxicity to acute myelogenous leukemia cells (MV-4-11 cells), CCK-8; conditions: Homo sapiens, MV4-11, 72 h, read-out: MV-4-11 Cytotoxicity IC50
[2] = biological target: BRD4 (BD1+BD2) bromodomain (Homo sapiens (Human), UniProt O60885); experiment: BRD4 binding inhibition (AlphaScreen, GST-BRD4 vs tetraacetylated histone H4 peptide)
Procedure, shortened: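 AlphaScreen read after 30 min dark incubation at room temperature with glutathione acceptor/streptavidin donor beads (10 μg/ml each). The beads were added to compound plus 100 nM biotin-H4 (K5,8,12,16-acetyl) peptide and 100 nM GST-BRD4 BD1+BD2 in pH 7.4 HEPES/Tween/BSA/DTT buffer.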

[3] = GST-BRD4 (BD1+BD2) / biotinylated acetyl-histone H4 (Lys5,8,12,16) peptide, read-out: IC50, BRD4 binding inhibition
[4] = GST-BRD4 (BD1+BD2) vs biotinylated acetyl-histone H4 peptide, AlphaScreen, read-out: BRD4 IC50

With Cc1nnc2c(NCCCCNC(=O)OC(C)(C)C)nc3cc(N4CCc5sccc5C4)ccc3n12 [Example 526, {4-[7-(6,7-dihydro-4H-thiano[3,2-c]pyridine-5-yl)-1-methyl-[1,2,4]triazolo[4,3-a]quinoxaline-4-ylamino]-butyl}-carbamic acid-tert-butylester] the IC50 [1] was 802 nM.

With COCCOc1cc2c(cc1OC)nc(NCCCCN)c1nnc(C)n12 [Example 484, N^1-[7-methoxy-8-(2-methoxy-ethoxy)-1-methyl-[1,2,4]triazolo[4,3-a]quinoxaline-4-yl]-butane-1,4-diamine ditrifluoroacetic acid] the IC50 [1] was 460 nM.

COCCOc1ccc2c(c1)nc(NCCCCNC(=O)C1CC1)c1nnc(C)n12 [Example 377, cyclopropane carboxylic acid-{4-[7-(2-methoxy-ethoxy)-1-methyl-[1,2,4]triazolo[4,3-a]quinoxaline-4-ylamino]-butyl}-amide] was tested, and the IC50 [2, 3] was ≤ 50 nM and the IC50 [2, 4] was 39 nM.

COc1cc2nc(NCCCCNC(=O)C(C)(C)C)c3nnc(C)n3c2cc1C(F)(F)F [Example 477, N-[4-(7-methoxy-1-methyl-8-trifluoromethyl-[1,2,4]triazolo[4,3-a]quinoxaline-4-ylamino)-butyl]-2,2-dimethyl-propionamide] was tested, and the IC50 [2, 3] was ≤ 50 nM and the IC50 [2, 4] was 20 nM.

Work on COc1cccc2c1nc(NCCCCNC(=O)C(C)(C)C)c1nnc(C)n12 [Example 119, N-[4-(6-methoxy-1-methyl-[1,2,4]triazolo[4,3-a]quinoxaline-4-ylamino)-butyl]-2,2-dimethyl-propionamide] yielded an IC50 [2, 4] of 79 nM.

Cc1nnc2c(NCCCCNC(=O)OC(C)(C)C)nc3ccc(F)cc3n12 [Example 47, [4-(8-fluoro-1-methyl-[1,2,4]triazolo[4,3-a]quinoxaline-4-ylamino)-butyl]-carbamic acid-tert-butylester] was tested, and the IC50 [2, 3] was ≤ 50 nM and the IC50 [2, 4] was 42 nM.

With Cc1noc(C)c1-c1ccc2nc(NCCCCN)c3nnc(C)n3c2c1 [Example 579, N^1-[8-(3,5-dimethyl-isoxazol-4-yl)-1-methyl-[1,2,4]triazolo[4,3-a]quinoxaline-4-yl]-butane-1,4-diamine ditrifluoroacetic acid] the IC50 [2, 3] was ≤ 10 nM and the IC50 [2, 4] was 5 nM.

Cc1nnc2c(NCCCCNC(=O)c3ccc(Cl)nc3)nc3ccccc3n12 [Example 20, 6-chloro-N-[4-(1-methyl-[1,2,4]triazolo[4,3-a]quinoxaline-4-ylamino)-butyl]-nicotinamide] was tested, and the IC50 [2, 3] was ≤ 50 nM and the IC50 [2, 4] was 43 nM.

In the case of COCCOc1ccc2c(c1)nc(NCCCCNC(=O)C(C)(C)O)c1nnc(C)n12 [Example 385, 2-hydroxy-N-{4-(7-(2-methoxy-ethoxy)-1-methyl-[1,2,4]triazolo[4,3-a]quinoxaline-4-ylamino)-butyl}-2-methyl-propionamide], the IC50 [2, 3] is reported as ≤ 50 nM and the IC50 [2, 4] is reported as 49 nM.

Work on Cc1nnc2c(NCCCCN)nc3cc(-c4nc5ccccc5n4C)ccc3n12 [Example 221, N^1-[1-methyl-7-(1-methyl-1H-benzoimidazole-2-yl)-[1,2,4]triazolo[4,3-a]quinoxaline-4-yl]-butane-1,4-diamine ditrifluoroacetic acid] yielded an IC50 [2, 4] of 62 nM.

With Cc1nnc2c(NCCCCNC(=O)NC(C)(C)C)nc3ccc(F)cc3n12 [Example 52, 1-tert-butyl-3-[4-(8-fluoro-1-methyl-[1,2,4]triazolo[4,3-a]quinoxaline-4-ylamino)-butyl]-urea] the IC50 [2, 4] was 70 nM.

Work on Cc1nnc2c(NCCCCNC(=O)OC(C)(C)C)nc3cc(C(=O)O)ccc3n12 [Example 200, 4-[(4-tert-butoxycarbamoylamino)-butylamino]-1-methyl-[1,2,4]triazolo[4,3-a]quinoxaline-7-carboxylic acid] yielded an IC50 [2, 4] of 71 nM.

COc1cccc2c1nc(NCCCCN)c1nnc(C)n12 [Example 118, N^1-(6-methoxy-1-methyl-[1,2,4]triazolo[4,3-a]quinoxaline-4-yl)-butane-1,4-diamine dihydrochloride] showed an IC50 [2, 4] of 54 nM.

For Cc1noc(C)c1-c1ccc2nc(NCCCCNC(=O)[C@H](O)C(C)C)c3nnc(C)n3c2c1 [Example 581, N-{4-[8-(3,5-dimethyl-isoxazol-4-yl)-1-methyl-[1,2,4]triazolo[4,3-a]quinoxaline-4-ylamino]-butyl}-2-(R)-hydroxy-3-methyl-butyramide], the IC50 [2, 3] was ≤ 50 nM and the IC50 [2, 4] was 24 nM.

Compound COc1cc2nc(NCCCCNC(=O)CC(C)C)c3nnc(C(F)(F)F)n3c2cc1OC [Example 593, N-[4-(7,8-dimethoxy-1-trifluoromethyl-[1,2,4]triazolo[4,3-a]quinoxaline-4-ylamino)-butyl]-3-methyl-butyramide] has an IC50 [2, 4] of 92 nM.

In the case of COc1cc2nc(NCCCCC(=O)NC(C)C)c3nnc(C)n3c2cc1OC [Example 647, 5-(7,8-dimethoxy-1-methyl-[1,2,4]triazolo[4,3-a]quinoxaline-4-ylamino)-pentanoic acid-isopropylamide], the IC50 [2, 3] is reported as ≤ 50 nM and the IC50 [2, 4] is reported as 29 nM.

COc1cc2nc(NCCCCNC(=O)c3ccccc3Cl)c3nnc(C)n3c2cc1C(F)(F)F [Example 481, 2-chloro-N-[4-(7-methoxy-1-methyl-8-trifluoromethyl-[1,2,4]triazolo[4,3-a]quinoxaline-4-ylamino)-butyl]-benzamide] gave an IC50 [2, 4] of 51 nM.

Cc1nnc2c(NCCCCNC(=O)c3cccc(Cl)c3Cl)nc3ccccc3n12 [Example 17] gave an IC50 [2, 4] of 51 nM.

COc1ccc2c(c1)nc(NCCCCC(=O)NC(C)(C)C)c1nnc(C)n12 [Example 653, 5-(7-methoxy-1-methyl-[1,2,4]triazolo[4,3-a]quinoxaline-4-ylamino)-pentanoic acid-tert-butylamide] was tested, and the IC50 [2, 3] was ≤ 50 nM and the IC50 [2, 4] was 16 nM.

With Cc1noc(C)c1-c1ccc2c(c1)nc(NCCCCNC(=O)[C@H](O)C(C)C)c1nnc(C)n12 [Example 586, N-{4-[7-(3,5-dimethyl-isoxazol-4-yl)-1-methyl-[1,2,4]triazolo[4,3-a]quinoxaline-4-ylamino]-butyl}-2-(R)-hydroxy-3-methyl-butyramide] the IC50 [2, 3] was ≤ 50 nM and the IC50 [2, 4] was 24 nM.

For COc1ccc2c(c1)nc(NCCCCNC(=O)C(C)(C)OC(C)=O)c1nnc(C)n12 [Example 296, acetic acid-1-[4-(7-methoxy-1-methyl-[1,2,4]triazolo[4,3-a]quinoxaline-4-ylamino)-butylcarbamoyl]-1-methyl-ethylester], the IC50 [2, 3] was ≤ 50 nM and the IC50 [2, 4] was 96 nM and 27 nM.

In the case of COc1cc(C(F)(F)F)cc2c1nc(NCCCCNC(=O)OC(C)C)c1nnc(C)n12 [Example 144, [4-(6-methoxy-1-methyl-8-trifluoromethyl-[1,2,4]triazolo[4,3-a]quinoxaline-4-ylamino)-butyl]-carbamic acid isopropylester], the IC50 [2, 3] is reported as ≤ 50 nM and the IC50 [2, 4] is reported as 38 nM.

Work on COc1cc2nc(NCCCCC(=O)NC(C)(C)C)c3nnc(C)n3c2cc1OC [Example 646] yielded an IC50 [2, 4] of 56 nM.

Cc1nnc2c(NCCCCCC(=O)NC(C)C)nc3ccccc3n12 [Example 661, 6-(1-methyl-[1,2,4]triazolo[4,3-a]quinoxaline-4-ylamino)-hexanoic acid isopropylamide] was tested, and the IC50 [2, 4] was 78 nM.

In the case of COc1c(C)ccc2c1nc(NCCCCNC(=O)OC(C)(C)C)c1nnc(C)n12 [Example 130, {4-[6-methoxy-1,7-dimethyl-[1,2,4]triazolo[4,3-a]quinoxaline-4-ylamino]-butyl}-carbamic acid-tert-butylester], the IC50 [2, 3] is reported as ≤ 50 nM and the IC50 [2, 4] is reported as 36 nM.

In the case of Cc1nnc2c(NCCCCNC(=O)[C@H](O)C(C)C)nc3ccccc3n12 [Example 9, 2-(R)-hydroxy-N-[4-(1-methyl-[1,2,4]triazolo[4,3-a]quinoxaline-4-ylamino)-butyl]-3-methyl-butyramide], the IC50 [2, 3] is reported as ≤ 50 nM and the IC50 [2, 4] is reported as 40 nM.

With COc1cc2c(cc1C)nc(NCCCCNC(=O)c1ccccc1F)c1nnc(C)n12 [Example 155, 2-fluoro-N-[4-(8-methoxy-1,7-dimethyl-[1,2,4]triazolo[4,3-a]quinoxaline-4-ylamino)-butyl]-benzamide] the IC50 [2, 4] was 77 nM.

For COc1ccc2nc(NCCCCNC(=O)[C@H](O)C(C)C)c3nnc(C)n3c2c1 [Example 125, 2-(R)-hydroxy-N-[4-(8-methoxy-1-methyl-[1,2,4]triazolo[4,3-a]quinoxaline-4-ylamino)-butyl]-3-methyl-butyramide], the IC50 [2, 3] was ≤ 50 nM and the IC50 [2, 4] was 31 nM.

In the case of Cc1nnc2c(NCCCCC(=O)NC(C)C)nc3ccccc3n12 [Example 659, 5-(1-methyl-[1,2,4]triazolo[4,3-a]quinoxaline-4-ylamino)-pentanoic acid isopropylamide], the IC50 [2, 4] is reported as 75 nM.

Cc1nnc2c(NCCCCN)nc3cc(N4CCOCC4)ccc3n12 [Example 498, N^1-(1-methyl-7-morpholine-4-yl-[1,2,4]triazolo[4,3-a]quinoxaline-4-yl)-butane-1,4-diamine dihydrochloride] showed an IC50 [2, 4] of 98 nM.

For Cc1nnc2c(NCCCCNC(=O)C(C)C)nc3cc(Cl)c(Cl)cc3n12 [Example 29, N-[4-(7,8-dichloro-1-methyl-[,2,4]triazolo[4,3-a]quinoxaline-4-ylamino)-butyl]-isobutyramide], the IC50 [2, 4] was 98 nM.

For COc1cc2nc(NCCCCNC(=O)COC(C)=O)c3nnc(C)n3c2cc1OC [Example 87], the IC50 [2, 3] was ≤ 50 nM and the IC50 [2, 4] was 27 nM.

In the case of Cc1nnc2c(NCCCCNC(=O)OCc3ccccc3)nc3ccccc3n12 [Example 25, [4-(1-methyl-[1,2,4]triazolo[4,3-a]quinoxaline-4-ylamino)-butyl]-carbamic acid benzylester], the IC50 [2, 4] is reported as 55 nM.

With COCCOc1ccc2c(c1)nc(NCCCCNC(=O)SC(C)C)c1nnc(C)n12 [Example 428, {4-[7-(2-methoxy-ethoxy)-1-methyl-[1,2,4]triazolo[4,3-a]quinoxaline-4-ylamino]-butyl}-thiocarbamic acid-S-isopropylester] the IC50 [2, 3] was ≤ 10 nM and the IC50 [2, 4] was 4 nM.
